# According to patent US20050065348A1, “Pyridin-2-yl-methylamine derivatives for treating opioid dependence” (priority 2001, published 2005):
# Where a name gives a salt, the structure may show the parent alone.
# Tests used:
# 5-HT1A receptor = target: T1, 5-HT1A receptor (Rattus norvegicus, UniProt P19327); assay: Affinity for the 5-HT1A receptor (3H-8-OH-DPAT displacement); type: binding; conditions: Tissue: cerebral cortex of rat, average of at least 3 experiments
# T1 construct: Tissue: cerebral cortex of rat; from tissue; host or cells: rat cerebral cortex
# T1 sequence (P19327 1-422): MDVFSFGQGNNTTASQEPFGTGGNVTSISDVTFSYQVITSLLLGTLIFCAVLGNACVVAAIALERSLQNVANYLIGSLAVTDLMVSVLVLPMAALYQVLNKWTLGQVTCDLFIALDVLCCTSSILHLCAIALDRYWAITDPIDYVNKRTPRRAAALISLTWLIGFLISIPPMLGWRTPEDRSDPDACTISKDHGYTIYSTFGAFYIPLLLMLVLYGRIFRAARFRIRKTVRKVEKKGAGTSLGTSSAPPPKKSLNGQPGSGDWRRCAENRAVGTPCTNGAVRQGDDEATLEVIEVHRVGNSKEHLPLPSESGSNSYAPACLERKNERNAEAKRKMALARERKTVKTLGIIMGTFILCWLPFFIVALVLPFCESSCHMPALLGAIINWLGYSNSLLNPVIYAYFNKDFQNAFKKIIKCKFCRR
# Description: Measurement of the affinity of compound F and reference products for the 5-HT1A receptor
# Study of the bond with the 5-HT1A receptor was carried out according to a standard method (Naunyn-Schmiedeberg's Arch. Pharmaco. 1991, 343, 106). The inhibition constants (Ki) of the products according to the invention were estimated from displacement experiments using the version 4 RADLIG non-linear regression programme of EBDA (Equilibrium Binding Data Analysis) (Biosoft, Cambridge, UK, Mc Pherson, 1985). The dissociation constants of the radioactive ligands used in the calculations are 0.31 nmole for ^3H-8-OH-DPAT. The values of pKi (−logKi) are provided under the form of average±SEM of at least 3 experiments.
# [1] = test system: morphine withdrawal syndrome (hyperalgesia); assay: Effects on morphine dependence: naloxone-precipitated withdrawal hyperalgesia (Randall and Selitto nociceptive thresholds); type: in vivo; conditions: rat, s.c. osmotic mini-pumps 2 weeks
# Description: The products are administered by means of osmotic mini-pumps (model 2ML2; flow rate 5 μl/hr: Alza Corporation, Palo Alto, USA) implanted subcutaneously on the first day of the experiment and extracted two weeks later. The pump is set in place through a transversal incision made in the skin of the dorsal face of the rat, the liberation orifice being directed towards the head.
# The compound F is administered at 0.63 mg/rat/day (5.25 mg/ml) in solution in distilled water. […] The pumps implanted in the control animals release 0.12 ml of 0.9% NaCl (saline)/rat/day; the doses referring to the weight of the non salified compound.
# The study consists of two phases: a phase of chronic treatment lasting 2 weeks, and a withdrawal phase lasting 1 week.
# On the experiment's first day the rats were given implants of two osmotic mini-pumps.
# After two weeks of chronic treatment, the withdrawal phase began. After taking base measurements on day 14, all the animals received a sub-cutaneous injection of naloxone at 0.63 mg/kg. Next, 30 minutes, 1 hr, 2 hr, 4 hr, and 8 hr after the injection, another series of measurements was taken. The pumps were extracted after the last measurement at 8 hr after the naloxone injection. A series of measurements was also taken daily 24 hr to 4 days after the naloxone injection. During this withdrawal period, the nociceptive thresholds were measured using the Randall and Selitto method (Arch. Int. Pharmacodyn. 1957, CXI, 409) in which increasing pressure is applied to the back paw until the vocalisation threshold is reached. The results are expressed in grams and a 750 g limit is imposed.
# In order to evaluate the nociceptive thresholds, the areas under the curves (AUCs) were determined and processed by a variance analysis (ANOVA). The post-hoc comparisons (i.e. those following the variance analysis when the latter is significant) were made using the Student-Newman-Keuls (SNK) test for comparing groups with each other. A statistically significant effect was defined at p<0.05.
Compound,Ki (5-HT1A receptor; read-out: pKi site 5-HT1A (converted)) [nM],"Effect on hyperalgesia / morphine withdrawal syndrome (AUC of nociceptive thresholds) ([1]; co-treatment morphine 5 mg/rat/day + compound 2.5 mg/rat/day, naloxone 0.63 mg/kg s.c., SNK p<0.05 vs control)",pKi site 5-HT1A (5-HT1A receptor),"AUC of nociceptive thresholds 30 minutes to 4 days after naloxone, versus control animals ([1]; co-treatment morphine 5 mg/rat/day + compound 0.63 mg/rat/day, naloxone 0.63 mg/kg s.c., SNK p>0.05)","AUC of nociceptive thresholds 30 minutes to 4 days after naloxone, compound alone versus control animals ([1]; saline + compound 0.63 mg/rat/day, no morphine, p>0.05)"
"Clc1cnn(CCCCN2CCN(c3ncccn3)CC2)c1 [lesopitron, reference compound]",55,did not have any detectable effect on the hyperalgesia,,,
"Cc1ccc(CNCC2(F)CCN(C(=O)c3ccc(F)c(Cl)c3)CC2)nc1 [compound F, (3-Chloro-4-fluorophenyl)-(4-fluoro-4-{[(5-methyl-pyridin-2-yl-methyl)-amino]-methyl}-piperidin-1-yl)-methadone fumarate]",,,9.07,statistically comparable with those obtained from the control animals,does not induce an effect on its own
